Laboratory results: US11174216B2, “Lipids that increase insulin sensitivity and methods of using the same” (Beth Israel Deaconess Medical Center, Inc., priority 2012, dated 2021)

Experiments:
[1] = tested on: Human islets; assay: Insulin release from primary human islet cells; assay type: cell-based; conditions: 45 min
Experimental: Two human donors provided cells used in these studies. Donor 1 was a person, 5′0″, 157 lbs, with a BMI of 30.5, HbA1C was 5.8, who died from a stroke, but it was witnessed and they had no downtime. Islets were 80% pure and 95% viable. After arrival, islets were incubated overnight in human islet media before stimulation with glucose in presence and absence of 5-PAHSA (lipid A-5). Note 1 IU of Human Insulin=6 nmol=34.8 μg Insulin.
Human islets were divided into ten groups [100 islets per condition]
A] Low glucose [2.5 mM]; B] High glucose [20.0 mM]; C] Low glucose [2.5 mM]+2.5 μL/mL Methanol; D] High glucose [20.0 mM]+2.5 μL/mL Methanol; E] Low glucose+20 μM Lipid A-5; F] High glucose+20 μM Lipid A-5; G] Low glucose+50 μM Lipid A-5; H] High glucose+50 μM Lipid A-5.
Islets were cultured overnight in Human Islet media and next day incubated with KRB buffer for 4 h prior to glucose stimulation.
Following KRB incubation, islets were stimulated with glucose [2.5 mM & 20.0 mM] in the presence and absence of Lipid A-5 [20 & 50 μM] for 45 min
At the end of glucose stimulation the amount of insulin released [μ IU/mL] into the media was measured using Human Insulin ELISA kit. And the insulin content from the islets were extracted to express insulin released into the media as μ IU/mL/islet content. […]

[2] = tested on: isolated rat islets; assay: Insulin release studies in rat islets; assay type: cell-based; conditions: 25 mM glucose in the media
Experimental: Ins1 cells (FIGS. 31A and 31B) or primary rat islet cells (FIG. 32A and FIG. 32B) were seeded in 24 well-plates [˜10^6 cells/well]. At confluence, cells were incubated with Low Serum [2.5%] and Low Glucose [2.5 mM] media for 12 hours. Next, cells were incubated with KRB buffer for 1 h and stimulated with glucose in the presence of 5-PAHSA (FIGS. 31a and 31B) or 9-PAHSA (FIG. 31B) for 45 min in KRB. At the end of the stimulation, 100 μL of media was collected and 10 μL was used to quantitate the amount of insulin released by ELISA. Treatment Conditions for FIGS. 31A, 31B and 32B were: • 5-PAHSA or 9-PAHSA [Stock]=20.0 mM [10.76 mg/mL Methanol] • A] 1 uM=0.3 uL/6 mL [Amount of methanol/mL=0.05 uL] • B] 5 uM=1.5 uL/6 mL [Amount of methanol/mL=0.25 uL] • C] 10 uM=3.0 uL/6 mL [Amount of methanol/mL=0.50 uL] • D] 20 uM=6.0 uL/6 mL [Amount of methanol/mL=1.00 uL] […]
Isolated rat islets were cultured overnight in RPMI 1640 medium containing 2.5 mM glucose and 2.5% fetal bovine serum supplemented with 100 IU/ml penicillin and 100 IU/ml streptomycin, 1 mM sodium pyruvate, and 10 mM HEPES (pH 7.4). […] At the end of the stimulation supernatant was collected and insulin released into the medium was quantified by ELISA as per manufacturer's protocol. The islets were lysed and protein content was measured and the amount of insulin released into the media was quantitated as ng/mL/μg of protein.

[3] = tested on: carboxyl ester lipase (CEL)

| SMILES | Glucose Stimulated Insulin Secretion ([1]; human islets from Donor 1, 20 and 50 uM) | Glucose Stimulated Insulin Secretion ([1]; human islets from Donor 2, 20 uM) | glucose-stimulated insulin secretion [2] | hydrolysis by HEK293T lysates transfected with CEL, AADACL1 or CES3 [3] |
| --- | --- | --- | --- | --- |
| CCCCCCCCCCCCCCCC(=O)OC(CCCCCCCCCCCCC)CCCC(=O)O (stereo not shown) [5-PAHSA] | induces Glucose Stimulated Insulin Secretion | induces Glucose Stimulated Insulin Secretion | potentiates glucose-stimulated insulin secretion |  |
| CCCCCCCCCCCCCCCC(=O)OC(CCCCCCCCC)CCCCCCCC(=O)O (stereo not shown) [9-PAHSA, palmitoyl-9-hydroxystearic acid] |  |  |  | only CEL-transfected cell lysate was able to hydrolyze FAHFA above the level of background hydrolysis activity |
